In US20090270478A1, “ION CHANNEL MODULATING ACTIVITY II” (CARDIOME PHARMA CORP., priority 2000, published 2009):

Experiments:
[1] = molecular target: human heart sodium channel (hH1) (Homo sapiens, UniProt Q14524); assay type: cell-based
[2] = test system: isolated rabbit Purkinje fibers; details: 100 μM lidocaine, 300 nM dofetilide
[3] = molecular target: T1, hH1 sodium channel (Homo sapiens, UniProt Q14524); assay: Inactivated state inhibition of hH1 sodium channel current (prepulse protocol); assay type: cell-based
T1 construct: expressed in transfected cells
T1 sequence (Q14524 whole entry): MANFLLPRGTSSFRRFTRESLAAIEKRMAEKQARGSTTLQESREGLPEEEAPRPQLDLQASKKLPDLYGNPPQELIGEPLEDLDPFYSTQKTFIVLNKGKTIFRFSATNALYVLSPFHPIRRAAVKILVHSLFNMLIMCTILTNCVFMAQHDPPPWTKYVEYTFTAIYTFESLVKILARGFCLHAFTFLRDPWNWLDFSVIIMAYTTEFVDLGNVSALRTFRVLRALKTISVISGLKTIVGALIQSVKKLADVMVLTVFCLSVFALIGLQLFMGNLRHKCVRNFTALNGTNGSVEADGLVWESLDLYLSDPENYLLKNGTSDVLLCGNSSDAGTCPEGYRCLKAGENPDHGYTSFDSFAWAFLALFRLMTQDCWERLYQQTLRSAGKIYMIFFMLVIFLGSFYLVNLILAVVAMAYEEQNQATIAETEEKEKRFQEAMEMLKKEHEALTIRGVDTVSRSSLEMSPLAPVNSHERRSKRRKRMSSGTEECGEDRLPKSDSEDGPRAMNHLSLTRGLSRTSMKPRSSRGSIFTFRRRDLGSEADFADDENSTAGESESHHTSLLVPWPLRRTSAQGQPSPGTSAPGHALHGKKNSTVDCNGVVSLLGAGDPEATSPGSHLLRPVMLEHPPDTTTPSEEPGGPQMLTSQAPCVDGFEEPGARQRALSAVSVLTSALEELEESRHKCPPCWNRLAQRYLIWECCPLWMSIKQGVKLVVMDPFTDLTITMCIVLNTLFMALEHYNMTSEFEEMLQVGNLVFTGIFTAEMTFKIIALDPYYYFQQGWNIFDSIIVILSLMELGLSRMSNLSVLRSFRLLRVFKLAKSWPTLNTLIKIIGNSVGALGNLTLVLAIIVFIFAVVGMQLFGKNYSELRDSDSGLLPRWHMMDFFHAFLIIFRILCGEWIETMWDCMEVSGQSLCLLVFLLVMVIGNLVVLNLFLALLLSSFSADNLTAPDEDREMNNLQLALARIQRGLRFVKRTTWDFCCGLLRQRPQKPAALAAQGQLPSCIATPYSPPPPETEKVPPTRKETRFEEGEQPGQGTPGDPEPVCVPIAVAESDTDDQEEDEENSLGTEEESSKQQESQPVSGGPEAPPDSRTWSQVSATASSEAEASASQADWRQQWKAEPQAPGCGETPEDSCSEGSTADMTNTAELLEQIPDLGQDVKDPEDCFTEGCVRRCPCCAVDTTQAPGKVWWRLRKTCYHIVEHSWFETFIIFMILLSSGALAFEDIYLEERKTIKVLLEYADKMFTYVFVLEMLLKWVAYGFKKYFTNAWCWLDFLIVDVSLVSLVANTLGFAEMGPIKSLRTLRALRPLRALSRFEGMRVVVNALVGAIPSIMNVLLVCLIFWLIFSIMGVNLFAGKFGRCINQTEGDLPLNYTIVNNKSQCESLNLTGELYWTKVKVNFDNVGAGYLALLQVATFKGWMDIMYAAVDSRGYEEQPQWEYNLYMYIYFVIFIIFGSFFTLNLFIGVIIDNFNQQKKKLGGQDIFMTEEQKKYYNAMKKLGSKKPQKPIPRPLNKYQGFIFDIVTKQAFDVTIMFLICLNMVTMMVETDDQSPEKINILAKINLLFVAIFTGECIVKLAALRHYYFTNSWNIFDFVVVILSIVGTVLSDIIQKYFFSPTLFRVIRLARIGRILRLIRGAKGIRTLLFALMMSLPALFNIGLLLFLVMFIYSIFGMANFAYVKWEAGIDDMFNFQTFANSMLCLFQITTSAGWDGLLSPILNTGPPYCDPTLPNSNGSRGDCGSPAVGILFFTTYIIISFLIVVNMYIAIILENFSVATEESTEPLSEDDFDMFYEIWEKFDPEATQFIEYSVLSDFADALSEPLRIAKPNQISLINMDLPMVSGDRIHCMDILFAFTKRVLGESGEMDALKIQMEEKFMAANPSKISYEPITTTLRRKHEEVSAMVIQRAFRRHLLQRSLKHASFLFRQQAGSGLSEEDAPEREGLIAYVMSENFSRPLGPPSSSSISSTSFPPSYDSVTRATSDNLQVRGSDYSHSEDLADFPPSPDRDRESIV

human heart sodium channel (hH1), sequence (Q14524 whole entry, looked up): as the sequence (Q14524 whole entry) above

CCN(CC)CC(=O)Nc1c(C)cccc1C [lidocaine]
block of early TTX-sensitive sodium current, Iearly(TTX) [1]: 41±2.7%
block of late TTX-sensitive sodium current, Ilate(TTX) [1]: 73±2.8%
block of sustained TTX-sensitive sodium current, Isus(TTX) [1]: 70±2.5%
termination of dofetilide-induced EADs [2]: terminated dofetilide-induced (300 nM) EADs
inhibition of hH1 with longer prepulses (inactivated state inhibition) [3]: produced enhanced inhibition when prepulses of longer duration were applied
